Starred links: 1 amine or outer side, 2 acyl side, 3 side chain; linkers in the order of their positions; H or OH if unused. Non-standard residues stand in square brackets, D forms with d. Residues, ends and D or L forms follow the SMILES beside them. No end group written: not given here. Eth = ethionine, CCSCC[C@H](N[*:1])C(=O)[*:2]; Ethionine = CCSCC[C@H](N[*:1])C(=O)[*:2]; hCys = N[C@@H](CCS)C(=O)O
B1: Lysyl-Leucyl-Glycine (peptide)
peptide: KLG
B2: Lysyl-Leucine (peptide)
peptide: KL

Columns and labels:
[1] = tested on: S. cerevisiae PB1X-9B(pOPT1); experiment: Growth assay, peptides as sole source of leucine, PB1X-9B(pOPT1); assay type: cell-based, Saccharomyces cerevisiae; conditions: 100 μM peptide; for utilization of peptide as a sole source of leucine (growth): medium with 0.1% proline as nitrogen source
Method: (§1) To determine the size constraints of peptide utilization mediated by pOPT1, the ability of S. cerevisiae PB1X-9B (a mutant in the di-/tripeptide transporter) harboring either pRS202 (the parent vector) or pOPT1 (pRS202 containing the 3.8 kb insert with the OPT1 gene) to grow on KL, KLG, KLLG SEQ ID NO:6, and KLLLG SEQ ID NO:8 as a sole source of leucine was tested. Previously it has been shown that di-/tripeptide transport activity in C. albicans and S. cerevisiae is regulated by nitrogen; rich nitrogen sources such as ammnonium sulfate repress, while poor nitrogen sources such as proline derepress transport. Therefore simultaneous effect of nitrogen source on oligopeptide transport activity was determined by supplying either ammnonium sulfate or proline as the nitrogen source.
(§2) Peptide medium consisted of minimal medium supplemented with auxotrophic requirements minus the amino acid Seucine plus 100 μM of one of the following peptidest Lysyl-Leucine (KL), Lysyl-Leucyl-Glycine (KLG), Lysyl-Leucyl-Leucyl-Glycine (KLLG) SEQ ID NO:6, Lysyl-Leucyl-Glycyl-Leucine (KLGL) SEQ ID NO:7, or Lysyl-Leucyl-Leucyl-Leucyl-Glycine (KLLLG) SEQ ID NO:8. Abbreviations for toxic peptides and amino acids used herein are as follows: Ethionine (Eth), Alanyl-Ethionine (AEth), Leucyl-Ethionine (LEth), Lysysl-Leucyl-Ethionine (KLEth), Lysyl-Leucyl-Leucyl-Ethionine (KLLEth) SEQ ID NO:12, Lysysl-Leucyl-Alanyl-Ethionine (KLAEth) SEQ ID NO:14, and Lysyl-Leucyl-Leucyl-Leucyl-Ethionine (KLLLEth) SEQ ID NO:13. All amino acids were in the L configuration.
(§3) Growth assays to determine the phenotype of the cells were done as described by Island et al. (1991). Briefly, 3 μl of culture from a suspension of 5×10^6 cells/ml were spotted to the surface of the medium and plates were incubated at 30 iC for 4-7 days.

[2] = tested on: S. cerevisiae PB1X-9B(pRS202); experiment: Growth assay, peptides as sole source of leucine, PB1X-9B(pRS202); assay type: cell-based, Saccharomyces cerevisiae; conditions: medium with 0.1% proline as nitrogen source; 100 μM peptide
Method: as §1, §2, §3

[3] = tested on: oligopeptide transporter (OPT1) expressed in S. cerevisiae PB1X-9B; experiment: Peptide transport competition experiment, KLG-[3H]L uptake by PB1X-9B(pOPT1); assay type: cell-based, Candida albicans; conditions: for uptake rate of KLG-[3H]L in the presence of the competitor: SC-Ura with ammonium sulfate; for competition with the uptake of KLG-[3H]L: 10-fold molar excess of competitor, FIG. 7
Method: To more rigorously determine the size constraints of the oligopeptide transporter, the accumulation of KLG-[^3H]L SEQ ID NO:7 was measured in the presence of 10-fold molar excess of the competitors L, KL, KLG, KLLG SEQ ID NO:6, and KLLLG SEQ ID NO:8. […] Uptake rates were calculated from a bestfit of the slope for each set of data. The uptake rate of KLG-[^3H]L SEQ ID NO:7 in the presence of no competitor, L, or KL was […] of dry weight, respectively. When KLG was used as a competitor the uptake rate was 0.12 nmoles/min/mg of dry weight which was approximately 50% of the no-competitor rate. The uptake rate approximated zero when KLLG SEQ ID NO:6 and KLLLG SEQ ID NO:8 were used as competitors.
Uptake of KLG-[^3H]L SEQ ID NO:7 was determined using a protocol for uptake of dipeptides as described by Basrai et al. (1995) with a few modifications. S. cerevisiae cultures were grown overnight to exponential phase in SC-Ura medium. Cells were harvested by centrifugation, and resuspended in 2% glucose at a cell density of 2×10^8 cells/ml. Two hundred and fifty microliters of cell suspension were added to an equal volume of an uptake assay reaction mixture and incubated at 30iC. The final concentrations of the components in the uptake assay solution were: glucose (2%, w/v), 10 mM sodium citrate/potassium phosphate buffer (pH 5.0), and KLG-[^3H]L SEQ ID NO:7 (150 μM; 8.5 mCi/mmol). Competition experiments were done in the presence of either 1.5 mM L, KL, KLG, KLLG SEQ ID NO:6, or KLLLG SEQ ID NO:8. At various time points, 90 μl portions were removed and filtered through a membrane. The yeast cells retained on the filter were washed twice with ice-cold distilled water, once with room temperature distilled water, and the residual radioactivity was measured by liquid scintillation. There was no peptide adsorption to the cell surface or sticking to filters since at 0i C the counts were at background level. The uptake results, calculated on the basis of 50% counting efficiency (determined using L-[^3H]lysine as a standard, and the specific activity of the peptide), were expressed as nmol of peptide uptake per minute per mg cell dry weight.

[4] = tested on: S. cerevisiae PB1X-9B(pOPT1); assay type: cell-based, Saccharomyces cerevisiae; conditions: 0.38 μmoles per 6 mm disk; for zone of growth inhibition / sensitivity: 0.1% proline as nitrogen source; for zone of growth inhibition: ammonium sulfate as nitrogen source, 24-48 hr
Method: (§4) S. cerevisiae PB1X-9B is sensitive to the toxic amino acid ethionine Eth) but is resistant to ethionine containing di-, tri-, tetra-, and pentapeptides. Disk sensitivity assays was utilized to determine if cells transformed with pOPT1 were sensitive to toxic peptides and whether this sensitivity was dependent upon nitrogen source.
(§5) Sensitivity to ethionine, a toxic methionine analog, and ethionine-containing peptides was determined by the method described by Island et al. (1987). Cells were grown overnight to exponential phase of growth in SC, washed, and resuspended at 5×10^6 cells /ml in sterile water. One ml of this cell suspension was added to 3 ml molten Noble agar (0.8% final concentration) and overlayed on 20 ml of the same medium used to prepare the inoculum. A disk (6 mm diameter, Difco) was placed on the plate and 0.38 μmoles of the compounds to be tested were applied to the disks. Zones of inhibition were measured after 24-48 hr incubation at 30 iC. Each test comprised at least three independent assays and the results represented in the Tables are means of the values obtained. Maximum variation between the zones of inhibition measured for each test were ^23 mm. A value of 7 mm for the diameter of zone of inhibition represents a minimal growth inhibition value as the disk diameter was 6 mm. Photodocumentation of sensitivity assays was done with a Umax Scanner and processed through Adobe Photoshop.

[5] = tested on: S. cerevisiae PB1X-9B(pRS202); experiment: Disk sensitivity assay to ethionine-containing peptides, PB1X-9B(pRS202); assay type: cell-based, Saccharomyces cerevisiae; conditions: for zone of growth inhibition / sensitivity: 0.1% proline as nitrogen source, 0.38 μmoles per 6 mm disk; for zone of growth inhibition: medium containing ammonium sulfate
Method: as §4, §5

[6] = tested on: S. cerevisiae PB1X-9B(pRS202); experiment: Peptide transport assay, accumulation of KLG-[3H]L, PB1X-9B(pRS202); assay type: cell-based, Saccharomyces cerevisiae; conditions: cells grown in SC-Ura with 0.1% proline
Method: To determine if S. cerevisiae transformants harboring pOPT1 could accumulate a radiolabeled tetrapeptide, uptake assays were performed with the radiolabeled substrate KLG-[^3H]L SEQ ID NO:7 with cells grown to log phase in SC-Ura with either ammonium sulfate or 0.1% proline as a nitrogen source. […] This higher initial rate can be explained by overexpression due to high copy number or alternatively by the lack of requisite regulatory elements which may be absent in the heterologous host.
Uptake of KLG-[^3H]L SEQ ID NO:7 was determined using a protocol for uptake of dipeptides as described by Basrai et al. (1995) with a few modifications. S. cerevisiae cultures were grown overnight to exponential phase in SC-Ura medium. Cells were harvested by centrifugation, and resuspended in 2% glucose at a cell density of 2×10^8 cells/ml. […] The yeast cells retained on the filter were washed twice with ice-cold distilled water, once with room temperature distilled water, and the residual radioactivity was measured by liquid scintillation. […] The uptake results, calculated on the basis of 50% counting efficiency (determined using L-[^3H]lysine as a standard, and the specific activity of the peptide), were expressed as nmol of peptide uptake per minute per mg cell dry weight.

[7] = target: T1, Candida albicans oligopeptide transporter Opt1p (protein product of OPT1) (Candida albicans); experiment: cell-based or functional assay
T1 chain: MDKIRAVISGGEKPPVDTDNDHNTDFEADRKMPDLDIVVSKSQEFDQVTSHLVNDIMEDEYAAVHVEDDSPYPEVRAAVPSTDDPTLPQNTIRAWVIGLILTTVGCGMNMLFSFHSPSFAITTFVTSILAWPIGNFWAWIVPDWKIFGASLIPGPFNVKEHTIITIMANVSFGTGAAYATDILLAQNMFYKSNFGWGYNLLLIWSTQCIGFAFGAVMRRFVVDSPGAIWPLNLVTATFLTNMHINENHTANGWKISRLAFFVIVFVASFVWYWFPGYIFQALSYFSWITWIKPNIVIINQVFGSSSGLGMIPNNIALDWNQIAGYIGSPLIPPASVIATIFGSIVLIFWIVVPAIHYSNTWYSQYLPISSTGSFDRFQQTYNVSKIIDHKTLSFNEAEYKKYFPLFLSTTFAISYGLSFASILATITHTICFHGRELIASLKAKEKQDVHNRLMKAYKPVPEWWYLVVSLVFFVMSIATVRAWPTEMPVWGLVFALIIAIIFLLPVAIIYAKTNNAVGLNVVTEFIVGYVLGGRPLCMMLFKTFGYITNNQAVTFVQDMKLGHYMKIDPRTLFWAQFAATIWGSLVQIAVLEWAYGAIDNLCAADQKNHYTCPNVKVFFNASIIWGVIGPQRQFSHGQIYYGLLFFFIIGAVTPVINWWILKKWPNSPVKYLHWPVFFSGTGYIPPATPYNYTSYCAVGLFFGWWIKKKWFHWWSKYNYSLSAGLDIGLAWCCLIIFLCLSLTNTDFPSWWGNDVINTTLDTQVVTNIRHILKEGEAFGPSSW

[8] = 10-fold molar excess (1.5 mM) of competitor

Molecule	uptake rate of KLG-[3H]L in the presence of the competitor [3, 8]	competition with the uptake of KLG-[3H]L [3]	zone of growth inhibition / sensitivity [4]	zone of growth inhibition / sensitivity [5]	other results
CC(C)C[C@H](NC(=O)[C@@H](N)CCCCN)C(=O)O [KL, Lysyl-Leucine] (H-Lys-Leu-OH)	0.26 nm/min/mg of dry weight	do not compete			utilization of peptide as a sole source of leucine (growth) [1]: No growth; utilization of peptide as a sole source of leucine (growth) [2]: No growth
CCSCC[C@H](NC(=O)[C@H](CC(C)C)NC(=O)[C@H](CC(C)C)NC(=O)[C@@H](N)CCCCN)C(=O)O [KLLEth, Lysyl-Leucyl-Leucyl-Ethionine] (H-KLL[hCys](Et)-OH)			zone of complete growth inhibition	not for PB1X-9B(pRS202)	zone of growth inhibition [5]: not PB1X-9B(pRS202)
CC(C)C[C@H](NC(=O)CNC(=O)[C@H](CC(C)C)NC(=O)[C@@H](N)CCCCN)C(=O)O [KLGL, Lysyl-Leucyl-Glycyl-Leucine] (H-KLGL-OH)					accumulation of tetrapeptide [6]: did accumulate
KLLLG [KLLLG, Lysyl-Leucyl-Leucyl-Leucyl-Glycine]	zero	competition was seen			utilization of peptide as a sole source of leucine (growth) [1]: No growth; utilization of peptide as a sole source of leucine (growth) [2]: No growth
CC(C)C[C@H](N)C(=O)O [L, leucine]	0.25 nm/min/mg of dry weight	do not compete			
CCSCC[C@H](NC(=O)[C@H](C)N)C(=O)O [AEth, Alanyl-Ethionine] (H-Ala-[hCys](Et)-OH)			Neither strain exhibited sensitivity	Neither strain exhibited sensitivity	zone of growth inhibition [4]: no zone of growth inhibition
CCSCC[C@H](NC(=O)[C@@H](N)CC(C)C)C(=O)O [LEth, Leucyl-Ethionine] (H-Leu-[hCys](Et)-OH)					zone of growth inhibition [4]: no zone of growth inhibition
Lysysl-Leucyl-Alanyl-Ethionine (KLA[Ethionine]) [KLAEth]			zone of complete growth inhibition	not for PB1X-9B(pRS202)	zone of growth inhibition [5]: not PB1X-9B(pRS202)
CC(C)C[C@H](NC(=O)[C@@H](N)CCCCN)C(=O)NCC(=O)O [KLG, Lysyl-Leucyl-Glycine] (H-Lys-Leu-Gly-OH)	0.12 nmoles/min/mg of dry weight	decreased competition			utilization of peptide as a sole source of leucine (growth) [1]: No growth; utilization of peptide as a sole source of leucine (growth) [2]: No growth; uptake rate with competitor as percent of the no-competitor rate [3, 8]: approximately 50%
Lysysl-Leucyl-Ethionine [KLEth]			Neither strain exhibited sensitivity	Neither strain exhibited sensitivity	zone of growth inhibition [4]: no zone of growth inhibition
CC(C)C[C@H](NC(=O)[C@H](CC(C)C)NC(=O)[C@@H](N)CCCCN)C(=O)NCC(=O)O [KLLG, Lysyl-Leucyl-Leucyl-Glycine] (H-KLLG-OH)	zero	competition was seen			utilization of peptide as a sole source of leucine (growth) [1]: able to utilize; utilization of peptide as a source of leucine (growth) ([1]; medium with ammonium sulfate as nitrogen source): able to utilize; utilization of peptide as a sole source of leucine (growth) [2]: not able to utilize
KLLAEth: ethionine-containing toxic pentapeptide, SEQ ID NO:15 (KLLA[Eth])			zone of complete growth inhibition	not for PB1X-9B(pRS202)	zone of growth inhibition [5]: not PB1X-9B(pRS202)
B1					uptake rate of KLG-[3H]L in the presence of a 10-fold molar excess of the competitor [7]: 0.12 nmoles/min/mg of dry weight
B2					uptake rate of KLG-[3H]L in the presence of a 10-fold molar excess of the competitor [7]: 0.26 nm/min/mg of dry weight

Reference: US6441134B1, “Isolated Candida albicans oligopeptide transporter gene” (The University of Tennessee Research Corporation, dated 2002)
